US20030039980A1, “Assays for determination of functional binding of compounds to receptors” (priority 2000, published 2003)

Key:
[1] = molecular target: T1, human PPARα ligand binding domain (GST-PPARα-LBD) (Homo sapiens, UniProt Q07869); experiment: in vitro PPARα/SRC-1 binding assay (GST-PPARα-LBD / SRC-Luc complex captured on glutathione-sepharose beads, luciferase readout)
T1 construct: made in house; host or cells: E. coli BL21(DE3)pLysS
T1 sequence (Q07869 164-468): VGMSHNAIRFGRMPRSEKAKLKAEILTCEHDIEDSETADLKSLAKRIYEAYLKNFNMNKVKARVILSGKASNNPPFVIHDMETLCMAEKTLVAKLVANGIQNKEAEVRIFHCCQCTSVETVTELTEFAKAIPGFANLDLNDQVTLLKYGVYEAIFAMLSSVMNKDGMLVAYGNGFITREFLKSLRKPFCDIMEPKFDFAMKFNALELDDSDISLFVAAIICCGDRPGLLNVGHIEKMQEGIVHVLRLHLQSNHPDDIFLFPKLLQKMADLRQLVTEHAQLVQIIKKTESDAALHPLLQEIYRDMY
T1 sequence (Q15788 631-763 partner limits assumed): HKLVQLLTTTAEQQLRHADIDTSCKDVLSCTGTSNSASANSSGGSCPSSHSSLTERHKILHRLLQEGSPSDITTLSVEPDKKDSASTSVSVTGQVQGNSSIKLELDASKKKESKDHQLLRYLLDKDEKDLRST
Source text: For this example, the peroxisome proliferator-activated receptor-α (PPARα) nuclear receptor was chosen. The PPAR LBD was expressed in bacteria as a GST fusion protein (GST-PPARα-LBD) for use in the assay (FIG. 1). Also chosen was a known PPARα coactivator, SRC-1 (Takeshita Endocrinology 137:3594-3597 (1996)). SRC-1 was expressed as a GST fusion protein also containing a firefly luciferase moiety (GST-SRC-Luc). The GST moiety was subsequently cleaved away from purified GST-SRC-1-Luc protein to yield a purified SRC-Luc protein (FIG. 1). A known PPARα ligand, GW2331, was also chosen for establishing the assay.
The GST-PPARα-LBD expression plasmid was prepared as follows: the human PPARα ligand binding domain including the hinge region (amino acids 164-468, accession #S74349) was PCR amplified from HepG2 first-strand cDNA using synthetic primers (SEQ ID:1 and SEQ ID:2) and native Taq polymerase. The primers were tagged with BamHI (5′) and NotI (3′) restriction sites to facilitate cloning. PCR fragments were cloned directly into pGEM®-T (Promega Corp), screened by diagnostic restriction digests, and confirmed by DNA sequence analysis. A combination of clones was used to generate a complete, error-free clone. The PPARα hinge/ligand binding domain clone was then transferred into pGEX-4T-3 (Amersham Pharmacia Biotech) as a BamH I/Not I fragment to create an in-frame fusion with GST. […]

[2] = molecular target: T2, human PPARβ ligand binding domain (GST-PPARβ-LBD) (Homo sapiens, UniProt Q03181); experiment: in vitro PPARβ/SRC-1 binding assay (GST-PPARβ-LBD / SRC-Luc complex captured on glutathione-sepharose beads, luciferase readout); details: each ligand at final 5 μM; FIG. 3
T2 construct: made in house
T2 sequence (Q03181 136-441): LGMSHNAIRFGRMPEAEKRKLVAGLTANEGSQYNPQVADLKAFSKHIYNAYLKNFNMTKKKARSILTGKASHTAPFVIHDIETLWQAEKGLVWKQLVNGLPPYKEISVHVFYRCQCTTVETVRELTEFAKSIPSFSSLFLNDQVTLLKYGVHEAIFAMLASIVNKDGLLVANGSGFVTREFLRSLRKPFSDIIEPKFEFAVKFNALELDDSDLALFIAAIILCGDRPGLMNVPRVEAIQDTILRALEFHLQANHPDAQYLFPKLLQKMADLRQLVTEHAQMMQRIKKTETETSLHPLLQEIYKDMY
T2 sequence (Q15788 631-763 partner limits assumed): T1 sequence (Q15788 631-763 partner limits assumed)

## CCCCCCCN(CCc1ccc(OC(C)(CC)C(=O)O)cc1)C(=O)Nc1ccc(F)cc1F (stereo not drawn) [GW2331, spec/2-(4-[2-(3[2,4-Difluorophenyl]-1-heptylureido)ethyl]phenoxy)-2-methylbutyric acid]
[1]; each ligand at final 5 μM, FIG. 3
  binding of ligand by GST-PPARα-LBD (luciferase activity of the isolated complex with SRC-Luc): efficiently
[1]; ligand at 0.001, 0.01, 0.1, 1.0, 10.0 and 100.0 μM, 2 h at 4° C., FIG. 2
  amount of GST-PPARα-LBD/GW2331 ligand/SRC-Luc complex (luciferase activity, light units) as the ligand concentration was increased: also increased
[2]
  binding of ligand by GST-PPARβ-LBD (luciferase activity of the isolated complex with SRC-Luc): roughly equal efficiency
